Source: patent US20120322661A1, “Organized Liquid Mixture” (priority 2010, published 2012)

Test: Conductivity measurement for micellar entrapment of fomesafen sodium
Type: physicochemical
Details: aqueous solution
Procedure: A series of the experiments were conducted to establish that a combination of a sorbitan ester alkoxylate with a vegetable oil ethoxylate provided a stable micellar solubilization of the water soluble herbicide fomesafen sodium. Studies were also designed to confirm that the fomesafen sodium present within the formulation was partitioned between the micro-domains of the aqueous phase and the micellar oil phase.
The conductivity of an aqueous solution of fomesafen sodium was measured at different concentrations of fomesafen sodium. The results were plotted on a graph with measured conductivity plotted on Y-axis and the corresponding concentration on the X-axis. It was observed that the conductivity increased with the salt concentration and dropped suddenly above 0.45 g/L. It is believed that at this inflection concentration, fomesafen sodium self-aggregated to form an aggregated structure.
In another series of experiments, the formulations according to the present invention exemplified by examples 1 and 2 were tested at various concentrations of fomesafen sodium active ingredients and the resulting conductivity was measured. The results were plotted on a graph with measured conductivity plotted on Y-axis and the corresponding concentration on the X-axis. […]

In the case of `CS(=O)(=O)N=C([O-])c1cc(Oc2ccc(C(F)(F)F)cc2Cl)ccc1[N+](=O)[O-].[Na+]` [fomesafen sodium, sodium (EZ)-5-(2-chloro-α,α,α-trifluoro-p-tolyloxy)-N-mesyl-2-nitrobenzenecarboximidate], the “Concentration above which conductivity dropped suddenly (inflection concentration, self-aggregation)” value is reported as “above 0.45 g/L”.
